Assay results reported in US8568755B2 (priority 2007, dated 2013).
Where “and” joins values, the source holds several entries; their conditions need not be identical. Identical values can stand only once. Counter-ions that a name gives are not always drawn. Like-named read-outs stand apart in the source and are kept apart here.

Legend:
Erysiphe graminis = experiment: Test on preventive effect against wheat powdery mildew (Test Example 1); type: in vivo
Sphaerotheca fuliginea = type: in vivo
[1] = partner fungicide alone 0.125 ppm
[2] = partner fungicide alone 0.5 ppm
[3] = partner fungicide alone 125 ppm
[4] = partner fungicide alone 250 ppm
[5] = partner fungicide alone 500 ppm

## Fc1ccc([C@]2(Cn3cncn3)O[C@H]2c2ccccc2Cl)cc1 (racemic) [epoxiconazole]
Erysiphe graminis; fungicide (b) alone 0.5 ppm
  diseased area ratio to non-treated section: 21.2
Erysiphe graminis; fungicide (b) alone 1 ppm
  diseased area ratio to non-treated section: 3.0

## COc1cc(C)c(C(=O)c2c(Cl)cnc(Cl)c2C(F)(F)F)c(OC)c1OC [Compound A, 4-(2,3,4-trimethoxy-6-methylbenzoyl)-2,5-dichloro-3-trifluoromethylpyridine]
Erysiphe graminis; [1]
  diseased area ratio to non-treated section: 65

## COc1cc(C)c(C(=O)c2c(OC)cnc(Cl)c2C(F)(F)F)c(OC)c1OC [Compound B, 4-(2,3,4-trimethoxy-6-methylbenzoyl)-2-chloro-3-trifluoromethyl-5-methoxypyridine]
Erysiphe graminis; [1]
  diseased area ratio to non-treated section: 50.0
Erysiphe graminis; [2]
  diseased area ratio to non-treated section: 30.0

## COc1cc(C)c(C(=O)c2c(OC)ncc(Br)c2Cl)c(OC)c1OC [Compound C, 3-(2,3,4-trimethoxy-6-methylbenzoyl)-5-bromo-4-chloro-2-methoxypyridine]
Erysiphe graminis; [1]
  diseased area ratio to non-treated section: 37.5
Erysiphe graminis; [2]
  diseased area ratio to non-treated section: 6.0

## COc1cc(C)c(C(=O)c2c(OC)ncc(Cl)c2C)c(OC)c1OC [Compound D, 3-(2,3,4-trimethoxy-6-methylbenzoyl)-5-chloro-2-methoxy-4-methylpyridine]
Erysiphe graminis; partner fungicide alone 0.06 ppm
  diseased area ratio to non-treated section: 27.5
Erysiphe graminis; [1]
  diseased area ratio to non-treated section: 15.0

## CC(C)Oc1ccc(C(=O)C(C)(C)NC(=O)c2ncccc2C(F)(F)F)cc1 [Compound No. 7, N-[[4′-(2-propyloxy)-1,1-dimethyl]phenacyl]-3-trifluoromethyl-2-pyridinecarboxamide]
Erysiphe graminis; Compound (a) alone 8 ppm
  diseased area ratio to non-treated section: 30.0
Erysiphe graminis; Compound (a) alone 16 ppm
  diseased area ratio to non-treated section: 25.0
Erysiphe graminis; Compound (a) alone 31 ppm
  diseased area ratio to non-treated section: 4.0

## Cc1ccsc1C(=O)NC(C)(C)C(=O)c1ccc(Cl)c(Cl)c1 [No. 2]
Sphaerotheca fuliginea; Compound No.x alone 2 ppm
  diseased area ratio to non-treated section: 70.0
Sphaerotheca fuliginea; Compound No.x alone 4 ppm
  diseased area ratio to non-treated section: 50.0 and 32.5

## Cc1cc(OC(C)C)ccc1C(=O)C(C)(C)NC(=O)c1ncccc1C(F)(F)F [No. 4]
Erysiphe graminis; Compound No.x alone 16 ppm
  diseased area ratio to non-treated section: 17.5
Erysiphe graminis; Compound No.x alone 31 ppm
  diseased area ratio to non-treated section: 17.5
Erysiphe graminis; Compound No.x alone 63 ppm
  diseased area ratio to non-treated section: 15.0 and 7.5
Erysiphe graminis; Compound No.x alone 125 ppm
  diseased area ratio to non-treated section: 5.0

## CC(C)Oc1ccc(C(=O)C(C)(C)NC(=O)c2ncccc2C(F)(F)F)cc1 [No. 7]
Sphaerotheca fuliginea; Compound No.x alone 1 ppm
  diseased area ratio to non-treated section: 81.3
Sphaerotheca fuliginea; Compound No.x alone 2 ppm
  diseased area ratio to non-treated section: 75.0
Sphaerotheca fuliginea; Compound No.x alone 4 ppm
  diseased area ratio to non-treated section: 56.3

## CO/C=C(/C(=O)OC)c1ccccc1Oc1cc(Oc2ccccc2C#N)ncn1 [azoxystrobin]
Sphaerotheca fuliginea; partner fungicide alone 31 ppm
  diseased area ratio to non-treated section: 37.5 and 55.0
Sphaerotheca fuliginea; partner fungicide alone 63 ppm
  diseased area ratio to non-treated section: 35.0 and 55.0
Sphaerotheca fuliginea; [3]
  diseased area ratio to non-treated section: 35.0

## N#Cc1c(Cl)c(Cl)c(Cl)c(C#N)c1Cl [chlorothalonil]
Sphaerotheca fuliginea; partner fungicide alone 4 ppm
  diseased area ratio to non-treated section: 77.5
Sphaerotheca fuliginea; partner fungicide alone 16 ppm
  diseased area ratio to non-treated section: 37.5

## CC(=O)c1c(C)c(C)nc2c(F)cc(C(C)(C)C)cc12 [compound β, 2,3-dimethyl-6-t-butyl-8-fluoro-4-acetylquinoline]
Erysiphe graminis; fungicide (b) alone 10 ppm
  diseased area ratio to non-treated section: 95.0

## [Cl-].[Cu+2].[Cu+2].[OH-].[OH-].[OH-] [copper oxychloride]
Sphaerotheca fuliginea; [4]
  diseased area ratio to non-treated section: 25.0
Sphaerotheca fuliginea; [5]
  diseased area ratio to non-treated section: 21.9
Sphaerotheca fuliginea; partner fungicide alone 1000 ppm
  diseased area ratio to non-treated section: 20.7 and 20.6

## Cc1ccc(-c2c(Cl)nc(C#N)n2S(=O)(=O)N(C)C)cc1 [cyazofamid, reference compound]
Sphaerotheca fuliginea; fungicide (b) alone 63 ppm
  diseased area ratio to non-treated section: 80.0
Sphaerotheca fuliginea; fungicide (b) alone 125 ppm
  diseased area ratio to non-treated section: 57.5
Sphaerotheca fuliginea; partner fungicide alone 63 ppm
  diseased area ratio to non-treated section: 70.0
Sphaerotheca fuliginea; [3]
  diseased area ratio to non-treated section: 57.5

## CC(C1CC1)C(O)(Cn1cncn1)c1ccc(Cl)cc1 (stereo not drawn) [cyproconazole]
Erysiphe graminis; fungicide (b) alone 0.125 ppm
  diseased area ratio to non-treated section: 97.5
Erysiphe graminis; fungicide (b) alone 0.5 ppm
  diseased area ratio to non-treated section: 60.0

## Cc1cc(C2CC2)nc(Nc2ccccc2)n1 [cyprodinil]
Erysiphe graminis; fungicide (b) alone 31 ppm
  diseased area ratio to non-treated section: 75.0
Erysiphe graminis; fungicide (b) alone 63 ppm
  diseased area ratio to non-treated section: 70.0
Erysiphe graminis; fungicide (b) alone 125 ppm
  diseased area ratio to non-treated section: 32.5

## CC1COC(Cn2cncn2)(c2ccc(Oc3ccc(Cl)cc3)cc2Cl)O1 (stereo not drawn) [difenoconazole]
Sphaerotheca fuliginea; partner fungicide alone 8 ppm
  diseased area ratio to non-treated section: 31.3
Sphaerotheca fuliginea; partner fungicide alone 16 ppm
  diseased area ratio to non-treated section: 9.4
Sphaerotheca fuliginea; partner fungicide alone 31 ppm
  diseased area ratio to non-treated section: 8.1

## COc1ccc(C(=CC(=O)N2CCOCC2)c2ccc(Cl)cc2)cc1OC [dimethomorph]
Sphaerotheca fuliginea; single use at 500 ppm
  diseased area ratio to non-treated section (experimental value): 95.0

## CNC(=O)/C(=N/OC)c1ccccc1COc1cc(C)ccc1C [dimoxystrobin]
Erysiphe graminis; fungicide (b) alone 5 ppm
  diseased area ratio to non-treated section: 5.0

## CC1(C(=O)Nc2ccc(O)c(Cl)c2Cl)CCCCC1 [fenhexamid]
Sphaerotheca fuliginea; [3]
  diseased area ratio to non-treated section: 52.5
Sphaerotheca fuliginea; [4]
  diseased area ratio to non-treated section: 52.5
Sphaerotheca fuliginea; [5]
  diseased area ratio to non-treated section: 50.0

## CC(Cc1ccc(C(C)(C)C)cc1)CN1CCCCC1 (stereo not drawn) [fenpropidin]
Erysiphe graminis; fungicide (b) alone 12.5 ppm
  diseased area ratio to non-treated section: 27.5
Erysiphe graminis; fungicide (b) alone 25 ppm
  diseased area ratio to non-treated section: 2.0
Erysiphe graminis; fungicide (b) alone 50 ppm
  diseased area ratio to non-treated section: 1.0

## CC(Cc1ccc(C(C)(C)C)cc1)CN1C[C@@H](C)O[C@@H](C)C1 (stereo partly drawn) [fenpropimorph]
Erysiphe graminis; fungicide (b) alone 12.5 ppm
  diseased area ratio to non-treated section: 36.4
Erysiphe graminis; fungicide (b) alone 25 ppm
  diseased area ratio to non-treated section: 9.1

## N#Cc1c[nH]cc1-c1cccc2c1OC(F)(F)O2 [fludioxonil]
Erysiphe graminis; fungicide (b) alone 125 ppm
  diseased area ratio to non-treated section: 95.0
Erysiphe graminis; fungicide (b) alone 250 ppm
  diseased area ratio to non-treated section: 90.0
Erysiphe graminis; fungicide (b) alone 500 ppm
  diseased area ratio to non-treated section: 85.0

## O=C1c2ccccc2C(=O)N1SC(Cl)(Cl)Cl [folpet]
Sphaerotheca fuliginea; [3]
  diseased area ratio to non-treated section: 84.4
Sphaerotheca fuliginea; [4]
  diseased area ratio to non-treated section: 84.4
Sphaerotheca fuliginea; [5]
  diseased area ratio to non-treated section: 81.3

## CCCCC(O)(Cn1cncn1)c1ccc(Cl)cc1Cl (stereo not drawn) [hexaconazole]
Sphaerotheca fuliginea; partner fungicide alone 2 ppm
  diseased area ratio to non-treated section: 95.0
Sphaerotheca fuliginea; partner fungicide alone 4 ppm
  diseased area ratio to non-treated section: 85.0
Sphaerotheca fuliginea; partner fungicide alone 8 ppm
  diseased area ratio to non-treated section: 75.0

## Cc1cc(O)no1 [hymexazol]
Sphaerotheca fuliginea; partner fungicide alone 100 ppm
  diseased area ratio to non-treated section: 95.0

## N=C(N)NCCCCCCCCNCCCCCCCCNC(=N)N [iminoctadine]
Sphaerotheca fuliginea; partner fungicide alone 4 ppm
  diseased area ratio to non-treated section: 65.0
Sphaerotheca fuliginea; partner fungicide alone 8 ppm
  diseased area ratio to non-treated section: 45.0
Sphaerotheca fuliginea; partner fungicide alone 16 ppm
  diseased area ratio to non-treated section: 30.0

## CC(C)NC(=O)N1CC(=O)N(c2cc(Cl)cc(Cl)c2)C1=O [iprodione]
Sphaerotheca fuliginea; [3]
  diseased area ratio to non-treated section: 60.0
Sphaerotheca fuliginea; [4]
  diseased area ratio to non-treated section: 45.0
Sphaerotheca fuliginea; [5]
  diseased area ratio to non-treated section: 45.0

## CC#Cc1cc(C)nc(Nc2ccccc2)n1 [mepanipyrim]
Sphaerotheca fuliginea; partner fungicide alone 63 ppm
  diseased area ratio to non-treated section: 0.5
Sphaerotheca fuliginea; [3]
  diseased area ratio to non-treated section: 0.5

## C/C=C/C(=O)Oc1c(C(C)CCCCCC)cc([N+](=O)[O-])cc1[N+](=O)[O-] (stereo not drawn) [meptyldinocap]
Sphaerotheca fuliginea; single use at 3 ppm
  diseased area ratio to non-treated section (experimental value): 2.5

## O=C([O-])O.[K+] [potassium bicarbonate]
Sphaerotheca fuliginea; single use at 100 ppm
  diseased area ratio to non-treated section (experimental value): 25.0
Sphaerotheca fuliginea; single use at 1000 ppm
  diseased area ratio to non-treated section (experimental value): 20.0

## CC12CC1(C)C(=O)N(c1cc(Cl)cc(Cl)c1)C2=O (stereo not drawn) [procymidone]
Sphaerotheca fuliginea; [3]
  diseased area ratio to non-treated section: 85.0
Sphaerotheca fuliginea; [4]
  diseased area ratio to non-treated section: 82.5
Sphaerotheca fuliginea; [5]
  diseased area ratio to non-treated section: 70.0

## CCCOC(=O)NCCCN(C)C [propamocarb hydrochloride]
Sphaerotheca fuliginea; single use at 10 ppm
  diseased area ratio to non-treated section (experimental value): 95.0
Sphaerotheca fuliginea; single use at 100 ppm
  diseased area ratio to non-treated section (experimental value): 95.0
Sphaerotheca fuliginea; single use at 1000 ppm
  diseased area ratio to non-treated section (experimental value): 92.5

## COC(=O)N(OC)c1ccccc1COc1ccn(-c2ccc(Cl)cc2)n1 [pyraclostrobin]
Sphaerotheca fuliginea; single use at 100 ppm
  diseased area ratio to non-treated section (experimental value): 100

## Cc1cc(C)nc(Nc2ccccc2)n1 [pyrimethanil]
Sphaerotheca fuliginea; partner fungicide alone 25 ppm
  diseased area ratio to non-treated section: 90.0

## COC(=O)NC(=S)Nc1ccccc1NC(=S)NC(=O)OC [thiophanate-methyl]
Sphaerotheca fuliginea; partner fungicide alone 63 ppm
  diseased area ratio to non-treated section: 75.0
Sphaerotheca fuliginea; [3]
  diseased area ratio to non-treated section: 65.0

## COP(=S)(OC)Oc1c(Cl)cc(C)cc1Cl [tolclofosmethyl]
Sphaerotheca fuliginea; single use at 100 ppm
  diseased area ratio to non-treated section (experimental value): 80.0

## CON=C(C(=O)OC)c1ccccc1CON=C(C)c1cccc(C(F)(F)F)c1 [trifloxystrobin]
Sphaerotheca fuliginea; partner fungicide alone 4 ppm
  diseased area ratio to non-treated section: 85.0
Sphaerotheca fuliginea; partner fungicide alone 200 ppm
  diseased area ratio to non-treated section: 50.0
Sphaerotheca fuliginea; single use at 4 ppm
  diseased area ratio to non-treated section (experimental value): 85.0
Sphaerotheca fuliginea; single use at 200 ppm
  diseased area ratio to non-treated section (experimental value): 50.0

## CCCOC/C(=N\c1ccc(Cl)cc1C(F)(F)F)n1ccnc1 [triflumizole]
Sphaerotheca fuliginea; partner fungicide alone 3 ppm
  diseased area ratio to non-treated section: 85
Sphaerotheca fuliginea; partner fungicide alone 12 ppm
  diseased area ratio to non-treated section: 70

## mancozeb
Sphaerotheca fuliginea; [3]
  diseased area ratio to non-treated section: 50.0
Sphaerotheca fuliginea; [4]
  diseased area ratio to non-treated section: 31.3

## polyoxins
Sphaerotheca fuliginea; [3]
  diseased area ratio to non-treated section: 40.0
Sphaerotheca fuliginea; [4]
  diseased area ratio to non-treated section: 35.0

## potassium phosphite
Sphaerotheca fuliginea; single use at 100 ppm
  diseased area ratio to non-treated section (experimental value): 85.0
Sphaerotheca fuliginea; single use at 500 ppm
  diseased area ratio to non-treated section (experimental value): 80.0
